We go through one compound from patent US20170354670A1, “PRODUCT COMPRISING GLUCOSAMINE FOR EXTERNAL APPLICATION” (Vital Medicine, LLC, priority 2016, published 2017).

The test system of this test is foot complaints (tired, achy, sore). The experiment in a line: Foot bath study of foot pain (100 mm visual analogue scale) versus sucrose sham. The test is classed as in vivo, human. The text has this:
Subjects: Normal healthy adults aged 40-75 with daily reported foot complaints (tired, achy, sore) that are not currently taking prescription or over the counter products for symptom relief. An attempt is made to recruit equal numbers of male and female participants. Sample Size: 40 subjects; 20 per group Treatment groups: Soothing foot bath topical fluid application apparatus (Glucosamine KCl), group A; Sham: Sucrose foot bath topical fluid application apparatus, group B. Methods: Recruitment—Questionnaire evaluating health status and foot complaints; including visual analogue scale evaluation of current pain state. Baseline—Questionnaire evaluating health status and foot complaints; including visual analogue scale evaluation of current pain state. Treatment—Subjects are randomly assigned to one of two treatment groups and asked to submerge their right foot in a plastic box that contains 3 liters of room temperature tap water and 2 liters of boiling water plus one packet (50 grams) of the labeled “treatment pack” and stirred until in solution. Label is removed from pack and placed on chart. Foot remains submerged and stopwatch set for 1 hour. At the end of 1 hour, subject foot is dried and subject is asked to mark on the line (100 mm) the current state of their foot pain upon standing. […]

SMILES strings stand for the structures.

Regarding `N[C@H]1C(O)OC(CO)[C@@H](O)[C@@H]1O` (stereo partly drawn) [glucosamine, (3R,4R,5S)-3-Amino-6-(hydroxymethyl)oxane-2,4,5-triol], the “pain relief compared with sucrose sham, duration” value (72 hours after treatment, single 1 hour foot bath, 50 grams in 5 liters water, many subjects) is on record as “greater pain relief”. Further, the “pain relief compared with sucrose sham (group B)” value (healthy adults aged 40-75 with daily foot complaints, right foot submerged 1 hour in 5 liters water with 50 grams treatment pack, visual analogue scale) is on record as “sufficiently better pain relief”.
